The structures appear in SMILES notation.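 In this assay, cells in 96-well plates receive the compound at five concentrations for 48 hours. Endpoints are linearly interpolated between the surrounding concentrations. TGI denotes the concentration required for complete inhibition of growth.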 A value given as a limit tells only on which side of the number the result lay.

Test systems include DLD-1 colon; DMS 114 small cell lung; DMS 273 small cell lung; HOP-18 NSCLC; KM20L2 colon; LXFL 529 NSCLC; M14 melanoma; RXF 393 renal; RXF-631 renal; SNB-78 CNS; U251 CNS; XF 498 CNS; IGROV1 ovarian; M19-MEL melanoma; SF-539 CNS.
Holding throughout (assay): growth of human tumour cells (NCI), 48 h

Consider `CCN(CC)c1ccc2c(c1)Oc1ccc(N(CC)CC)cc1C21Oc2ccccc2-c2c1c1ccccc1n2CC` (stereo not given), for which the TGI was more than 100 µM with DLD-1 colon; 3.61 µM in the assay on DMS 114 small cell lung; more than 100 µM in the assay with DMS 273 small cell lung; more than 100 µM in the assay on HOP-18 NSCLC; more than 100 µM in the assay on KM20L2 colon; more than 100 µM in the assay with LXFL 529 NSCLC. For the same compound, the TGI is more than 100 µM in the assay on M14 melanoma; more than 100 µM in the assay on RXF 393 renal; more than 100 µM in the assay on RXF-631 renal; more than 100 µM in the assay with SNB-78 CNS; more than 100 µM with U251 CNS; 4.08 µM with XF 498 CNS.

As to `O=C(CCC1C(=O)NC(=S)NC1=O)c1ccc2ccccc2c1`, the TGI in the assay with DLD-1 colon, with DMS 114 small cell lung, in the assay with DMS 273 small cell lung, in the assay with HOP-18 NSCLC, in the assay with IGROV1 ovarian and with KM20L2 colon was more than 100 µM each time. The TGI in the assay on LXFL 529 NSCLC, in the assay on M14 melanoma, in the assay with M19-MEL melanoma, with RXF 393 renal, with SF-539 CNS and with SNB-78 CNS was more than 100 µM throughout. Besides, the TGI with U251 CNS is more than 100 µM.

As for `Nc1c([N+](=O)[O-])nc(Cl)c2nncn12`, the TGI in the assay on DLD-1 colon was more than 100 µM; in the assay with DMS 114 small cell lung, more than 57.4 µM; with DMS 273 small cell lung, 31.3 µM; in the assay on HOP-18 NSCLC, more than 100 µM; in the assay with IGROV1 ovarian, more than 100 µM; with KM20L2 colon, more than 100 µM. The TGI in the assay on LXFL 529 NSCLC, with M14 melanoma, in the assay on M19-MEL melanoma, in the assay on RXF 393 renal, in the assay with RXF-631 renal and in the assay with SF-539 CNS was more than 100 µM each time. The TGI with SNB-78 CNS, in the assay with U251 CNS and in the assay with XF 498 CNS was more than 100 µM in each case.

Regarding `C/C(=C\CBr)CCC(Br)C(C)(C)Cl` (stereo not given), the TGI in the assay with DLD-1 colon, in the assay on DMS 114 small cell lung, with DMS 273 small cell lung, in the assay on HOP-18 NSCLC, in the assay on IGROV1 ovarian and in the assay with LXFL 529 NSCLC was more than 100 µM throughout. For the same compound, the TGI with M14 melanoma, with M19-MEL melanoma, with RXF 393 renal, in the assay with SF-539 CNS, with SNB-78 CNS and with U251 CNS was more than 100 µM in each case.

On to `CCOP1(=O)C=C(C)C(Cl)=C(C)C1` (stereo not given), for which the TGI was more than 100 µM in the assay with DLD-1 colon; 44.9 µM in the assay on DMS 114 small cell lung; 30.8 µM in the assay on DMS 273 small cell lung; more than 100 µM in the assay with HOP-18 NSCLC; more than 100 µM in the assay on IGROV1 ovarian; more than 100 µM in the assay with KM20L2 colon. The TGI is 44.5 µM in the assay with LXFL 529 NSCLC; 70.9 µM in the assay on M14 melanoma; more than 100 µM in the assay with M19-MEL melanoma; 77.2 µM with RXF 393 renal; 30.5 µM with RXF-631 renal; 59.5 µM with SF-539 CNS. Besides, the TGI came to 63.2 µM in the assay with U251 CNS and 75.2 µM with XF 498 CNS.

Consider `C/C=C/C#CC#C/C=C/C=C/C(O)CCO` (stereo not given), for which the TGI in the assay with DLD-1 colon, in the assay with DMS 114 small cell lung, in the assay with DMS 273 small cell lung, in the assay with HOP-18 NSCLC, with IGROV1 ovarian and with KM20L2 colon was more than 23.1 µM each time. Moreover, the TGI in the assay on LXFL 529 NSCLC, in the assay on M14 melanoma, in the assay on M19-MEL melanoma, with RXF 393 renal, in the assay with SF-539 CNS and with SNB-78 CNS was more than 23.1 µM in each case. Besides, the TGI in the assay on U251 CNS and in the assay with XF 498 CNS was more than 23.1 µM each time.

On to `CN(C)C(=NCc1ccccc1)NC#N`, for which the TGI in the assay with DLD-1 colon, with DMS 273 small cell lung, with IGROV1 ovarian, in the assay on KM20L2 colon, with LXFL 529 NSCLC and with M14 melanoma was more than 100 µM in each case. Also, the TGI in the assay with M19-MEL melanoma, in the assay with SF-539 CNS, in the assay on SNB-78 CNS and in the assay on U251 CNS was more than 100 µM in each case.

These data come from PubChem BioAssay (NCI).
